Assay results from article PMC6423129, “Activity and structural analysis of GRL-117C: a novel small molecule CCR5 inhibitor active against R5-tropic HIV-1s” (Scientific Reports, 2019).
Where a name gives a salt, the structure may show the parent alone.

Key:
HIV-1YU2 = test: TZM-bl single-round infection assay, HIV-1YU2; format: cell-based; settings: Human immunodeficiency virus 1, YU2, drug-sensitive, mean ± SD
Protocol: (§1) MAGI-CCR5 cells[18] were maintained in DMEM supplemented with 10% fetal calf serum (FCS: Gemini Bio-Products, West Sacramento, CA), 200 μg/ml G418, 100 μg/ml hygromycin B, and 100 μg/ml zeomycin. The Chinese hamster ovary (CHO) cells expressing CCR5[19] were maintained in Ham’s F-12 medium (GIBCO-BRL, Rockville, MD) supplemented with 10% FCS, 50 U/ml penicillin, and 50 μg/ml streptomycin in the presence of 5 μg/ml blasticidin S hydrochloride. TZM-bl cells were obtained from the NIH AIDS Reagent Program, and were cultured in DMEM with 10% FCS. Peripheral blood mononuclear cells (PBMCs) were isolated from buffy coats of HIV-1 seronegative individuals, and were activated with 10 μg/ml phytohemagglutinin (PHA) prior to use[16]. A laboratory wild-type R5-HIV-1 strain (HIV-1Ba-L)[37] was employed for drug susceptibility assays. AD101 (experimental CCR5 inhibitor) and VVC-resistant HIV clones[7],[8] were provided by Dr. John P. Moore of Cornell University for this study. The clones were propagated with activated PBMCs, and were used for the assays. A clinical HIV-1 strain, HIV-1KP-5pc, and an MVC-resistant isolate, HIV-1KP-5mvcR, were prepared and used for antiviral assays, as previously described[10],[38]. The following reagents (plasmids) for T/F HIV-1 viruses[22],[24] were obtained through the NIH AIDS Reagent Program, Division of AIDS, NIAID, NIH: pCH040.c/2625 (cat# 11740), pCH106.c/2633 (cat# 11743), pTHRO.c/2626 (cat# 11745), and pCH058.c/2960 (cat# 11856), from Dr. John Kappes and Dr. Christina Ochsenbauer.
(§2) Antiviral assays using PHA-PBMCs (p24 assay) were conducted as previously reported[16],[38]. In brief, PHA-PBMCs (1 × 10^6/ml) were exposed to 50 TCID50 of HIV-1Ba-L or drug-resistant HIV-1 infectious clones in the presence or absence of various concentrations of drugs; 10-fold serial dilutions were performed in 96-well microculture plates. The amount of p24 antigens produced by the cells was determined on day 7 in the culture via a commercially available ELISA kit (PerkinElmer). The p24 production level in drug-free control cell cultures was used as the reference. […] Antiviral assays using MAGI-CCR5 cells (MAGI assay) were conducted as previously reported[16],[39]. Single-round virus infection assays using TZM-bl cells infected with R5-HIV-1s (HIV-1YU2, HIV-1KP-5pc, and HIV-1KP-5mvcR)[10] were also conducted as previously described.

HIV-1KP-5mvcR = test: TZM-bl single-round infection assay, MVC-resistant HIV-1KP-5mvcR; format: cell-based
Protocol: as §1, §2

HIV-1KP-5pc = test: TZM-bl single-round infection assay, HIV-1KP-5pc; format: cell-based; settings: for IC50: KP-5pc, drug-sensitive clinical strain, TZM-bl assay, mean ± SD
Protocol: as §1, §2

R5-HIV-1Ba-L = test: MAGI assay using MAGI/CCR5 cells and R5-HIV-1Ba-L; format: cell-based; settings: Human immunodeficiency virus 1, BAL, Ba-L (MAGI)
Protocol: as §1, §2

pCH058.c/2960 = test: MAGI assay, T/F HIV-1 clone pCH058.c/2960; format: cell-based; settings: Human immunodeficiency virus 1, MAGI
Description: (§3) We also examined the activity of GRL-compounds against Transmitter/founder (T/F) HIV-1 viruses. T/F viruses are involved in the initial infection. It is considered that T/F viruses virtually always use CCR5 rather than CXCR4 and infect T cells but not macrophages because […] of CD4 is needed to mediate virus entry for the initial transmission[20]–[24]. […] We obtained four HIV-1 T/F infectious clones. We determined the antiviral activity of GRL-117C, GRL-10007C and GRL-10018C on these HIV-1 clones using MAGI assay.
as §1, with “A clinical HIV-1 strain, HIV-1KP-5pc, and an MVC-resistant isolate, HIV-1KP-5mvcR, were prepared and used for antiviral assays, as previously described[10],[38].” left out
as §2

[1] = test system: CC101.19 cl.7 (AD101 resistant); test: microbe, parasite or virus in culture; format: cell-based, HIV-1; settings: for IC90: Human immunodeficiency virus 1; for IC50: Human immunodeficiency virus 1, CC101.19 cl.7 (AD101 resistant)
Protocol: as §1, §2

[2] = test system: D1/85.16 cl.23 (VVC resistant); test: microbe, parasite or virus in culture; format: cell-based, HIV-1; settings: for IC90: Human immunodeficiency virus 1; for IC50: Human immunodeficiency virus 1, D1/85.16 cl.23 (VVC resistant)
Protocol: as §1, §2

pCH0.6.c/2633 = test: MAGI assay, T/F HIV-1 clone pCH0.6.c/2633; format: cell-based; settings: Human immunodeficiency virus 1, MAGI
Description: as §3
as §1, with “A clinical HIV-1 strain, HIV-1KP-5pc, and an MVC-resistant isolate, HIV-1KP-5mvcR, were prepared and used for antiviral assays, as previously described[10],[38].” left out
as §2

pTHRO.c/2626 = test: MAGI assay, T/F HIV-1 clone pTHRO.c/2626; format: cell-based; settings: Human immunodeficiency virus 1, MAGI
Description: as §3
as §1, with “A clinical HIV-1 strain, HIV-1KP-5pc, and an MVC-resistant isolate, HIV-1KP-5mvcR, were prepared and used for antiviral assays, as previously described[10],[38].” left out
as §2

pCH040.c/2625 = test: MAGI assay, T/F HIV-1 clone pCH040.c/2625; format: cell-based; settings: Human immunodeficiency virus 1, MAGI
Description: as §3
as §1, with “A clinical HIV-1 strain, HIV-1KP-5pc, and an MVC-resistant isolate, HIV-1KP-5mvcR, were prepared and used for antiviral assays, as previously described[10],[38].” left out
as §2

CCR5 [3] = biological target: T1, CCR5 (Homo sapiens, UniProt P51681); test: Inhibition of 125I-RANTES binding to CCR5 (CCR5+ CHO cells)
T1 construct: expressed in transfected cells; host or cells: Chinese hamster ovary (CHO) cells expressing CCR5
T1 sequence (P51681 whole entry): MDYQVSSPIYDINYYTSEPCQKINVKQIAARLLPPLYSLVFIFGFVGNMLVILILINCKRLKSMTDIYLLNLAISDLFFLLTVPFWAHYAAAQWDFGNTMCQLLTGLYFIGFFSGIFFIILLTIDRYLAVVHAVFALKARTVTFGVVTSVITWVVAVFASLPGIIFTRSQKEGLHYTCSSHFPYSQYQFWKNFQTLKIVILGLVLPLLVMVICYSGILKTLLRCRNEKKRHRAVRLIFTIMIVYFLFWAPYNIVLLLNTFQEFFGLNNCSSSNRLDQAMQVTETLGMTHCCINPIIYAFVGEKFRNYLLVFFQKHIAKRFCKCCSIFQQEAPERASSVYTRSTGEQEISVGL
Protocol: (§4) In order to determine whether GRL derivatives block the binding of CC-chemokines to CCR5, we conducted a CC-chemokine binding inhibition assay using ^125I-labeled CC-chemokines (^125I-RANTES, ^125I-MIP-1α, and ^125I-MIP-1β) and CCR5 expressing cells.
(§5) CCR5^+ CHO cells were incubated with (A) ^125I-MIP-1α, (B) ^125I-MIP-1β, and (C) ^125I-RANTES (200 ng/ml) in the presence or absence of varying concentrations of CCR5 inhibitors. Data are shown as means ± s.d. of three independent experiments.
(§6) The inhibition of the binding of ^125I-labeled CC-chemokines ([^125I] RANTES, [^125I] MIP-1α, or [^125I] MIP-1β) to CCR5 by various CCR5 inhibitors was measured as previously described. Calcium flux inhibition assays were also performed with CCR5 inhibitors, and were carried out with the Fluo-4 Direct^TM calcium reagent (Invitrogen); assays were conducted as previously described with minor modifications. In brief, CHO-CCR5 cells (5 × 10^5 cells) were exposed to Fluo-4 Direct^TM calcium reagent for 60 min at 37 °C in RPMI containing 5% FCS. Cells were then incubated with the test compound for 30 min at varying concentrations. Subsequently, cells were exposed to either MIP-1α, MIP-1β, or RANTES at 200 ng/ml. Relative increases in cytosolic Ca^2+ levels after chemokine exposure were determined with flow cytometry (FACSCalibur, BD Biosciences), and IC50 values of cytosolic Ca^2+ mobilization (Ca^2+ flux) were compared with the Ca^2+ flux level in drug-free control samples.

CCR5 [4] = biological target: T1, CCR5; test: Inhibition of 125I-MIP-1α binding to CCR5 (CCR5+ CHO cells)
Protocol: as §4, §5, §6

CCR5 [5] = biological target: T1, CCR5; test: Inhibition of 125I-MIP-1β binding to CCR5 (CCR5+ CHO cells)
Protocol: as §4, §5, §6

R5-HIV-1BaL = test: p24 assay using PBMCs and R5-HIV-1BaL; format: cell-based; settings: Human immunodeficiency virus 1, BAL, PBMC, 168 h, Ba-L (PBMCs), day 7
Protocol: as §1, §2

CC1/85 cl.7 = test: Anti-HIV-1 assay, drug-naive clinical strain CC1/85 cl.7; format: cell-based; settings: Human immunodeficiency virus 1
Protocol: as §1, §2

CC1/85 cl.6 = test: Anti-HIV-1 assay, drug-naive clinical strain CC1/85 cl.6; format: cell-based; settings: Human immunodeficiency virus 1; CC1/85 cl.6, drug naive R5-HIV-1 clinical strain; read-out: IC50
Protocol: as §1, §2

[6] = Human immunodeficiency virus 1, TZM-bl

SMILES	IC50 (R5-HIV-1Ba-L) [nM]	IC90 (R5-HIV-1Ba-L) [nM]	IC50 (pCH058.c/2960) [nM]	IC90 [1] [nM]	IC50 [1] [nM]	IC90 [2] [nM]	IC50 [2] [nM]	IC50 (pCH0.6.c/2633) [nM]	IC50 (pTHRO.c/2626) [nM]	IC50 (pCH040.c/2625) [nM]	IC50 (R5-HIV-1BaL) [nM]	IC90 (R5-HIV-1BaL) [nM]	IC50 (CC1/85 cl.7) [nM]	IC90 (CC1/85 cl.7) [nM]	also measured
CCCCOCCOc1ccc(-c2ccc3c(c2)/C=C(/C(=O)Nc2ccc([S@@+]([O-])Cc4cncn4CCC)cc2)CCCN3CC(C)C)cc1 [CVC, cenicriviroc]															IC50 (HIV-1YU2): 1.1 ± 0.7 nM; IC90 (HIV-1YU2): 6.2 nM; IC50 (HIV-1KP-5mvcR; [6]): 260 ± 352 nM; IC90 (HIV-1KP-5mvcR; [6]): > 300 nM; fold change of IC50 values between HIV-1KP-5pc (wild type) and HIV-1KP-5mvcR (HIV-1KP-5mvcR; KP-5mvcR vs KP-5pc / wild type): 63 fold; IC90 (HIV-1KP-5pc; [6]): 105 nM; IC50 (HIV-1KP-5pc; [6]): 4.1 nM; IC50 (HIV-1KP-5pc): 4.9 ± 2.2 nM
C=CCN(C(=O)OCC1COC2OCCC12)C1CC2CCC(C1)N2CCC(C)(CN(C)S(=O)(=O)c1ccccc1)c1ccccc1 (stereo not shown) [GRL-10018C]	2.9	27.5	8 ± 2.3	553	52.5	642	61.3	8.8 ± 4.2	3.9 ± 1.1	7.2 ± 1.4	18.7	155	4.9	34.9	fold increases of IC50s compared to wild type (CC1/85 cl.7) ([1]; CC101.19 cl.7 (AD101 resistant) vs CC1/85 cl.7): (×11) fold; fold increases of IC50s compared to wild type (CC1/85 cl.7) ([2]; D1/85.16 cl.23 (VVC resistant) vs CC1/85 cl.7): (×12.5) fold; EC50 (CCR5 [3]): 17 nM; activity against MVC-resistant HIV-1 (HIV-1KP-5mvcR) (HIV-1KP-5mvcR; in words, data not shown): failed to demonstrate activity; EC50 (CCR5 [4]): 0.3 nM; EC50 (CCR5 [5]): 0.4 nM
CCCCN1C(=O)[C@@H]([C@H](O)C2CCCCC2)NC(=O)C12CCN(Cc1ccc(Oc3ccc(C(=O)O)cc3)cc1)CC2 [APL, 4-[4-[(3 R)-1-butyl-3-[(1 R)cyclohexylhydroxymethyl]-2,5-dioxo-1,4,9-triazaspiro [5.5]undec-9 ylmethyl]phenoxy] benzoic acid hydrochloride]	0.2	4.9	1.7 ± 0.2	200	16.3	98.6	8.6	1.9 ± 0.2	0.9 ± 0.1	0.7 ± 0.2	2.6	13.4	1.8	11.3	IC50 (CC1/85 cl.6): 1.5 nM
